Test results published in US11951088B2, “Fatty acid analogs and their use in the treatment of conditions related to metabolic syndrome” (Epitracker, Inc., priority 2017, dated 2024).
Read-outs that look alike come from different tables or passages of the source.

Assays:
[1] = system: C57BL/6J mice fed a high fat diet; assay: diet-induced obese mice treated daily by gastric gavage for 12 weeks; type: in vivo
Description: Forty C57BL/6J mice were fed a high fat diet (HFD) (D12492, 60% kcals fat) for 8 weeks. Study mice were then divided into the following four groups of ten: vehicle controls, low dose C17:0-treated (5 mg/kg body weight), high-dose C17:0-treated (50 mg/kg body weight), and low-dose C15:0-treated (5 mg/kg body weight).
Table 1 provides comparisons of cardiometabolic effects in diet-induced obese mice treated daily with oral pentadecanoic acid (5 mg/kg BW), heptadecanoic acid (5 and 50 mg/kg BW) for 12 weeks compared to vehicle controls. “Results” values are based on 6 h fasted samples.

[2] = system: New Zealand white rabbits fed a high fat diet; assay: diet-induced rabbit model for metabolic syndrome-associated dyslipidemia, anemia, liver iron overload and steatohepatitis; type: in vivo; details: Day 76
Excerpt: This study further assessed the efficacy of treating diseases associated with metabolic syndrome, including dyslipidemia, inflammation, anemia, liver iron overload and nonalcoholic steatohepatitis, using an oral odd-chain saturated fatty acid. Sixteen New Zealand white rabbits were fed a high fat diet (HFD) (4% peanut oil and 0.5% cholesterol) for 2 weeks. Eight additional rabbits were maintained on a baseline diet. Study rabbits were then divided into the following three groups of eight: baseline diet controls, HFD controls, and C15:0-treated (35 mg/kg body weight) cases. The test article was a synthetic powder stable at room temperature and purchased from Sigma-Aldrich (Products W433400 (≥99% C15:0). The test article was provided daily in the diet for 11 weeks (76 days) while continuing ad libitum access to the HFD (HFD controls and treated groups) or baseline diet (baseline diet controls). Body weight and food intake were measured weekly. Plasma clinical chemistries and red blood cell indices, as well as iron deposition and fibrosis in the liver, were assessed at Day 76. Data from the treated group were compared to the control groups using Wilcoxon rank sum analyses. […].
Table 2 provides comparisons of clinical effects from a diet-induced rabbit model for metabolic syndrome-associated dyslipidemia, inflammation, and hemolytic anemia, including a case group treated daily with oral pentadecanoic acid (C15:0) (35 mg/kg BW) for 11 weeks.
Table 3 provides comparisons of effects on liver histology in a diet-induced rabbit model for metabolic syndrome-associated liver iron overload and nonalcoholic steatohepatitis, including a case group treated daily with oral pentadecanoic acid (C15:0) (35 mg/kg BW) for 11 weeks.

[3] = 24-hour plasma pharmacokinetics after single oral dose in rats; type: in vivo; details: for bioavailability: po, 35 mg/kg
human PPAR-α = biological target: T1, human PPAR-α (Homo sapiens, UniProt Q07869); assay: PathHunter NHR Protein Interaction assay, PPAR-α agonist activity (CHO cells); details: PPAR-alpha; Table 4
T1 sequence (Q07869 1-468): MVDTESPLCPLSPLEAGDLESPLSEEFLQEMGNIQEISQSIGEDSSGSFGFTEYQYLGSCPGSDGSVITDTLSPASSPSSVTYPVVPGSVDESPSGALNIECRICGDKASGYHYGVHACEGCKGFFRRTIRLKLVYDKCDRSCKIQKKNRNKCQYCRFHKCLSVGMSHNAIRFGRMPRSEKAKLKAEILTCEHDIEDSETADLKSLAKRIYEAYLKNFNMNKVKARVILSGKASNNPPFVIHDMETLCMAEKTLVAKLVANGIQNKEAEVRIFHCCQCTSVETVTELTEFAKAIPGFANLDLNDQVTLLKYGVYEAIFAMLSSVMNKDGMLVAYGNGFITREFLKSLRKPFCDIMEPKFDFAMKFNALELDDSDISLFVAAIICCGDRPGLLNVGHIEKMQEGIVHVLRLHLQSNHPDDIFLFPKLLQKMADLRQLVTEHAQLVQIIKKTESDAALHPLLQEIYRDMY
Description: (§1) PPAR-α, PPAR-δ, and PPAR-γ agonist activities were measured using PathHunter Nuclear Hormone Receptor (NHR) Protein Interaction (Pro) assays (DiscoverX, Freemont, California). Briefly, Chinese hamster ovary (CHO) cell lines were used to monitor the activation of PPAR-α, PPAR-δ, and PPAR-γ in a homogenous, non-imaging assay format using Enzyme Fragment Complementation (EFC). The NHR Pro assay was based on detection of protein-protein interactions between activated, full length PPAR-α, PPAR-δ, and PPAR-γ proteins and a nuclear fusion protein containing Steroid Receptor Co-activator Peptide (SRCP) domains with one or more canonical LXXLL interaction motifs. PPAR-α, PPAR-δ, and PPAR-γ were tagged with the ProLink component of the EFC assay system, and the SRCP domain was fused to the enzyme acceptor component (EA) expressed in the nucleus. When bound by ligand, PPAR-α, PPAR-δ, or PPAR-γ migrated to the nucleus and recruited the SRCP domain, whereby complementation occurred, generating a unit of active β-Galactosidase (β-Gal) and production of chemiluminescent signal. […] Percentage activity was calculated using the following formula: % Activity=100%×(mean RLU of test sample−mean RLU of vehicle control)/(mean MAX control ligand−mean RLU of vehicle control).

human PPAR-δ = biological target: T2, human PPAR-δ (Homo sapiens, UniProt Q03181); assay: PathHunter NHR Protein Interaction assay, PPAR-δ agonist activity (CHO cells)
T2 sequence (Q03181 1-441): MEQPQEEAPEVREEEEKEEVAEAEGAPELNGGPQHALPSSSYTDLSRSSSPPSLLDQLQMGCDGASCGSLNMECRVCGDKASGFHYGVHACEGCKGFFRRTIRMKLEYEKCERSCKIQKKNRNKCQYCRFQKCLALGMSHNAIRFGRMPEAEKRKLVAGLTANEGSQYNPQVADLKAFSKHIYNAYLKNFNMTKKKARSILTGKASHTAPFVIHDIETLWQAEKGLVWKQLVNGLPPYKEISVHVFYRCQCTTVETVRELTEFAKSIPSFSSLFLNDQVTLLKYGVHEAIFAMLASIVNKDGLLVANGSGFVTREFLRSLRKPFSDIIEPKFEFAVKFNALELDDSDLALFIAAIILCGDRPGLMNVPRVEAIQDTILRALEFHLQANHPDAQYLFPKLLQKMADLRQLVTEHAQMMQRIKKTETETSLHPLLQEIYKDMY
Description: as §1

human PPAR-γ = biological target: T3, human PPAR-γ (Homo sapiens, UniProt P37231); assay: PathHunter NHR Protein Interaction assay, PPAR-γ agonist activity (CHO cells)
T3 sequence (P37231 1-505): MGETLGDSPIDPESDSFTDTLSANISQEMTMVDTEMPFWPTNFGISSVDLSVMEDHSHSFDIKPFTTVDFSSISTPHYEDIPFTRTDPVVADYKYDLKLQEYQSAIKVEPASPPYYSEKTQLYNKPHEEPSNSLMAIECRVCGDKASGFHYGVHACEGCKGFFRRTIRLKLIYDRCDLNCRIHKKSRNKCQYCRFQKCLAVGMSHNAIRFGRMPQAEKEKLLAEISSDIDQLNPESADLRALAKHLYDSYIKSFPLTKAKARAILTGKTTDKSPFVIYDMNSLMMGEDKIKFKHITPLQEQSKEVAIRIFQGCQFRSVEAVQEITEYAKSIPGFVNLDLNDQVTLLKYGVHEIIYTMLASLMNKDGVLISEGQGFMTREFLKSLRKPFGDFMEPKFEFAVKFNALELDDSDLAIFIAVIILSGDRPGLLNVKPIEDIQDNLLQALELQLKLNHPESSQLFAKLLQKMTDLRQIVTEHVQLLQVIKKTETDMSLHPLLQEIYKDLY
Description: as §1

[4] = Day 84, 6 h fasted, 5 mg/kg daily oral

Structure (SMILES): CCCCCCCCCCCCCCC(=O)O [C15:0, pentadecanoic acid]
- metabolic syndrome compared to vehicle controls (in words) ([1]; 12 weeks daily oral, C15:0 5 mg/kg, C17:0 5 and 50 mg/kg): attenuated metabolic syndrome
- Cholesterol [1, 4]: 183 ± 25 mg/dL
- Glucose [1, 4]: 245 ± 37 mg/dL
- IL-6 [1, 4]: 19 ± 11 pg/mL
- Insulin [1, 4]: 4.9 ± 3.8 ng/mL
- LDL-C [1, 4]: 6 ± 4 mg/dL
- MCP-1 [1, 4]: 52 ± 25 pg/mL
- TNF-α [1, 4]: 1.6 ± 1.0 pg/mL
- clinical effects compared to the HFD controls (in words) ([2]; 35 mg/kg): attenuated anemia, liver iron deposition, and liver fibrosis
- Hematocrit ([2]; 35 mg/kg/day in HFD): 38 ± 4%
- Hemoglobin ([2]; 35 mg/kg/day in HFD): 14 ± 1 G/dl
- Mean cell hemoglobin ([2]; 35 mg/kg/day in HFD): 23 ± 1 pg
- Mean cell volume ([2]; 35 mg/kg/day in HFD): 64 ± 2 fL
- Nucleated red blood cells ([2]; 35 mg/kg/day in HFD): 8 ± 1 10^3/ul
- Platelets ([2]; 35 mg/kg/day in HFD): 485 ± 87 10^3/ul
- Red blood cell distribution width ([2]; 35 mg/kg/day in HFD): 15 ± 1%
- Red blood cells ([2]; 35 mg/kg/day in HFD): 6.0 ± 0.7 10^6/ul
- Cholesterol ([2]; plasma, 35 mg/kg/day in HFD): 2516 ± 746 mg/dL
- Globulins ([2]; plasma, 35 mg/kg/day in HFD): 1.3 ± 0.7 G/dl
- Lipemia ([2]; plasma, 35 mg/kg/day in HFD): 341 ± 243 mg/dL
- Triglycerides ([2]; plasma, 35 mg/kg/day in HFD): 235 ± 132 mg/dL
- Cmin ([3]; 35 mg/kg single oral dose): 700 ng/mL
- Tlast ([3]; 35 mg/kg single oral dose): 24 h
- AUC(0-t) ([3]; rat, 35 mg/kg single oral dose): 46400 ng·h/mL
- Tmax ([3]; rat, 35 mg/kg single oral dose): 1 h
- Cmax ([3]; rat, 35 mg/kg single oral dose, deuterated form): 4980 ng/mL
- bioavailability ([3]; rat, 35 mg/kg single oral dose, estimate using an AUC of 15 for a 1 mg/kg IV arm, read-out: % F): 8.83%
- bioavailability ([3]; rat, oral, rats, read-out: estimated plasma % F (bioavailability)): 9%
- EC50 (human PPAR-α): 11.5 µM
- PPAR-delta agonist activity (in words) (human PPAR-δ): partial PPAR delta agonist
- EC50 (human PPAR-γ): > 100 µM
- EC50 (human PPAR-γ; read-out: Half Maximal Effective Concentration (EC50), PPAR-γ, Table 5): > 100 µM
